Laboratory results: patent US20260042769A1, “TRIARYL AGONISTS OF ALPHA-2 ADRENERGIC RECEPTORS” (ALCEPTOR THERAPEUTICS, INC., priority 2023, published 2026)

biological target: T1, human ADRA2B receptor (Homo sapiens, UniProt P18089); assay: ADRA2B arrestin agonist assay; assay type: cell-based; conditions: CHO-K1 cells stably expressing human ADRA2B; read-out: Beta-Arrestin - Human Alpha2B EC50
T1 construct: expressed in transfected cells
T1 sequence (P18089 1-450): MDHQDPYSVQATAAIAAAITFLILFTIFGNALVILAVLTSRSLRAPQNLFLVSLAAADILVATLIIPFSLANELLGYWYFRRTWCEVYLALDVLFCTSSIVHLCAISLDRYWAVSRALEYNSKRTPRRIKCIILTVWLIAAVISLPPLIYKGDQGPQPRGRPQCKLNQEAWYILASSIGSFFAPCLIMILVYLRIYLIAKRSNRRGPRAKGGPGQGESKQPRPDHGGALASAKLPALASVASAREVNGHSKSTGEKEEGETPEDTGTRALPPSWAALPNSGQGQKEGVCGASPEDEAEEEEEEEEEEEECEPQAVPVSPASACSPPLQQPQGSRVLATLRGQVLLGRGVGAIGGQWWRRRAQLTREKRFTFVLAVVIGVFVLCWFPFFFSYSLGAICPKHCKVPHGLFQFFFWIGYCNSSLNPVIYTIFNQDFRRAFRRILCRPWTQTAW
Procedure: ADRA2A and ADRA2B Arrestin Agonist Assay Method
The arrestin assay uses frozen CHO-K1 cell lines stably expressing human ADRA2A and ADRA2B receptors. Cells are frozen following normal cell freezing protocols. Briefly, cells are washed with PBS and then dissociated with 0.25% trypsin. Dissociated cells are quenched in full media and then collected by centrifugation at 290×g for 5 minutes. […] Cells are stored at −80° C. (or in liquid N2 if stored >6 months) until the day of the assay.
On the day before the assay, frozen cells are thawed in a 37° C. water bath, brought up in 20 mL of full media, and collected via centrifugation at 290×g for 5 minutes. […] Cells are incubated overnight in a 37° C., 5% CO2 cell incubator.
On the day of the assay, agonists are diluted in Opti-MEM to 3.5x of the final assay concentration. 4 μL of agonists are added to the cells and incubated for 2 hours at 37° C. in a 5% CO2 cell incubator. 6 μL of arrestin detection reagents are dispensed onto the cells and the plates are incubated for 2 hours at room temperature. […] Plates are read on an Envision luminescence plate reader.

Row | SMILES | EC50
1 | Cc1cccc([C@H](Cc2cccc(CF)n2)c2c[nH]cn2)c1C [Compound 151, 4-{(S)-2-[6-(fluoromethyl)-2-pyridyl]-1-(2,3-xylyl)ethyl}imidazole] | 50 to 500 nM
2 | Cc1cc(CC(c2c[nH]cn2)c2cccc(C)c2C)nc(C(C)(C)O)n1 (stereo not drawn) [Compound 207, 2-{4-[2-(4-imidazolyl)-2-(2,3-xylyl)ethyl]-6-methyl 2-pyrimidinyl}-2-propanol] | < 10 nM
3 | Cc1nccc(CC(c2c[nH]cn2)c2cccc(Cl)c2C)n1 (stereo not drawn) [Compound 158, 4-[2-(3-chloro-2-tolyl)-2-(4-imidazolyl)ethyl]-2-methylpyrimidine] | < 10 nM
4 | COc1cccc(C(Cc2cccnn2)c2c[nH]cn2)c1C (stereo not drawn) [Compound 140, 3-[2-(4-imidazolyl)-2 (3-methoxy-2-tolyl)ethyl]pyridazine] | > 500 nM
5 | c1cc2c(c([C@H](Cc3cc[nH]n3)c3c[nH]cn3)c1)OCC2 [Compound 238, 3-[(S)-2-(2,3-dihydro-1-benzofuran-7-yl)-2-(4-imidazolyl)ethyl]pyrazole] | 10 to 50 nM
6 | Cc1nc(CC(c2c[nH]cn2)c2cccc(C)c2C)no1 (stereo not drawn) [Compound 243, 3-[2-(4-imidazolyl)-2-(2,3-xylyl)ethyl]-5-methyl-1,2,4-oxadiazole-formic acid (1/1)] | 50 to 500 nM
7 | Cc1cccc([C@@H](Cc2cn(C)nn2)c2c[nH]cn2)c1F [Compound 249, 4-[(R)-2-(2-fluoro-3-tolyl)-2-(4-imidazolyl)ethyl]-1-methyl-1H-1,2,3-triazole] | < 10 nM
8 | Cc1cccc(C(Cc2ncns2)c2c[nH]cn2)c1C (stereo not drawn) [Compound 248, 5-[2-(4-imidazolyl)-2-(2,3-xylyl)ethyl]-1,2,4-thiadiazole] | < 10 nM
9 | Cc1cccc([C@H](Cc2cn(C)nn2)c2c[nH]cn2)c1F [Compound 250, 4-[(S)-2-(2-fluoro-3-tolyl)-2-(4-imidazolyl)ethyl]-1-methyl-1H-1,2,3-triazole] | > 500 nM
10 | Cc1cccc(C(Cc2cocn2)c2c[nH]cn2)c1Cl (stereo not drawn) [Compound 376, 4-[2-(2-chloro-3-tolyl)-2-(4-imidazolyl)ethyl]-1,3-oxazole] | 10 to 50 nM
11 | Cc1cccc(C(Cn2cccn2)c2c[nH]cn2)c1C (stereo not drawn) [Compound 406, 1-[2-(4-imi-dazolyl)-2-(2,3-xylyl)ethyl]pyra-zole] | 10 to 50 nM
12 | Cc1cc(C[C@H](c2c[nH]cn2)c2cccc(C)c2F)ncn1 [Compound 144, 4-[(S)-2-(2-fluoro-3-tolyl)-2-(4-imidazolyl)ethyl]-6-methylpyrimidine] | > 500 nM
13 | COc1nccc(CC(c2c[nH]cn2)c2cccc(F)c2C)n1 (stereo not drawn) [Compound 154, 4-[2-(3-fluoro-2-tolyl)-2-(4-imidazolyl)ethyl]-2-methoxypyrimidine] | 10 to 50 nM
14 | Cc1cccc([C@@H](Cc2ccnc(C3CC3)n2)c2c[nH]cn2)c1C [Compound 169, 4-[(R)-2-(4-imidazolyl)-2-(2,3-xylyl)ethyl]-2-cyclopropylpyrimidine] | < 10 nM
15 | COc1nccc(C[C@@H](c2c[nH]cn2)c2cccc(C)c2OC)n1 [Compound 179, 4-[(R)-2-(4-imidazolyl)-2-(2-methoxy-3-tolyl)ethyl]-2-methoxypyrimidine] | < 10 nM
16 | COc1nccc(CC(c2c[nH]cn2)c2cccc(OC)c2F)n1 (stereo not drawn) [Compound 181, 4-[2-(2-fluoro-3-methoxyphenyl)-2-(4-imidazolyl)ethyl]-2-methoxypyrimidine] | 10 to 50 nM
17 | Cc1cccc([C@H](Cc2cn(C)nn2)c2c[nH]cn2)c1C [Compound 240, 4-[(S)-2-(4-imidazolyl)-2-(2,3-xylyl)ethyl]-1-methyl-1H-1,2,3-triazole] | < 10 nM
18 | c1ccc(C[C@@H](c2c[nH]cn2)c2cccc3c2OCC3)nc1 [Compound 252, 4-[(R)-1-(2,3-dihydro-1-benzofuran-7-yl)-2-(2-pyridyl)ethyl]imida-] | 10 to 50 nM
19 | Cc1cccc([C@@H](Cc2cocn2)c2c[nH]cn2)c1C [Compound 367, 4-[(R)-2-(4-imidazolyl)-2-(2,3-xylyl)ethyl]-1,3-oxazole] | > 500 nM
20 | Cc1nccc(C[C@H](c2c[nH]cn2)c2cccc(C)c2F)n1 [Compound 142, 4-[(S)-2-(2-fluoro-3-tolyl)-2-(4-imidazolyl)ethyl]-2-methylpyrimidine] | > 500 nM
21 | Cc1cccc([C@@H](Cc2cccc(CF)n2)c2c[nH]cn2)c1C [Compound 150, 4-{(R)-2-[6-(fluoromethyl)-2-pyridyl]-1-(2,3-xylyl)ethyl}imidazole] | < 10 nM

The next lines start with the values.

Row | EC50 | SMILES
22 | > 500 nM | Cc1cccc(C[C@H](c2c[nH]cn2)c2cccc3c2OCC3)n1 [Compound 266, 4-[(S)-1-(2,3-dihydro-1-benzofuran-7-yl)-2-(6-methyl-2-pyridyl)ethyl]imida-]
23 | 10 to 50 nM | c1cc2c(c(C(Cc3cnco3)c3c[nH]cn3)c1)OCC2 (stereo not drawn) [Compound 390, 5-[2-(2,3-dihydro-1-benzofuran-7-yl)-2-(4-imidazolyl)ethyl] 1,3-oxazole]
24 | 50 to 500 nM | Cc1cccc(C(Cc2ccc(F)nc2)c2c[nH]cn2)c1F (stereo not drawn) [Compound 323, 4-[2-(6-fluoro-3-pyridyl)-1-(2-fluoro-3-tolyl)ethyl]imidazole]
25 | 50 to 500 nM | CN1CCc2cccc(C(Cc3cn(C)nn3)c3c[nH]cn3)c21 (stereo not drawn) [Compound 387, 4-[2-(4-imidazolyl)-2-(1-methyl-7-indolinyl)ethyl]-1-methyl-1H-1,2,3-triazole]
26 | > 500 nM | Cc1cccc([C@@H](Cc2ccn(C(F)F)n2)c2c[nH]cn2)c1C [Compound 282, 3-[(R)-2-(4-imidazolyl)-2-(2,3-xylyl)ethyl]-1-(difluoromethyl)pyrazole]
27 | < 10 nM | COc1nc(CC(c2c[nH]cn2)c2cccc3c2OCC3)ccc1F (stereo not drawn) [Compound 313, 4-[1-(2,3-dihydro-1-benzofuran-7-yl)-2-(5-fluoro-6-methoxy-2-pyridyl)ethyl]imidazole]
28 | < 10 nM | Cc1cnc(CC(c2c[nH]cn2)c2cccc(C)c2C)s1 (stereo not drawn) [Compound 385, 2-[2-(4-imidazolyl)-2-(2,3-xylyl)ethyl]-5-methyl-1,3-thiazole]
29 | < 10 nM | COc1cc(CC(c2c[nH]cn2)c2cccc(C)c2C)ccn1 (stereo not drawn) [Compound 274, 4-[2-(2-methoxy-4-pyridyl)-1-(2,3-xylyl)ethyl]imidazole]
30 | < 10 nM | COc1nccc(C[C@@H](c2c[nH]cn2)c2cccc3ccn(C)c23)n1 [Compound 348, 4-[(R)-2-(4-imidazolyl)-2-(1-methyl-7-indolyl)ethyl]-2-methoxypyrimidine]
31 | 50 to 500 nM | COc1c(C)cccc1C(Cc1ccnc(CO)n1)c1c[nH]cn1 (stereo not drawn) [Compound 347, {4-[2-(4-imidazolyl)-2-(2-methoxy-3-tolyl)ethyl]-2-pyrimidinyl}methanol]
32 | < 10 nM | Cc1cccc(C(Cc2ncnc3[nH]ccc23)c2c[nH]cn2)c1C (stereo not drawn) [Compound 286, 4-[2-(4-imidazolyl)-2-(2,3-xylyl)ethyl]-1H-1,5,7-triazaindene]
33 | < 10 nM | Cc1nccc(CC(c2c[nH]cn2)c2cccc3c2OCCO3)n1 (stereo not drawn) [Compound 343, 4-[2-(2,3-dihydro-1,4-benzodioxin-5-yl)-2-(4-imidazolyl)ethyl]-2-methylpyrimidine]
34 | 10 to 50 nM | Cn1cc(CC(c2c[nH]cn2)c2cccc3c2OCC3)nn1 (stereo not drawn) [Compound 258, 4-[2-(2,3-dihydro-1-benzofuran-7-yl)-2-(4-imidazolyl)ethyl] 1-methyl-1H-1,2,3-triazole]
35 | 50 to 500 nM | Cc1cccc(C(Cc2cncnc2C)c2c[nH]cn2)c1C (stereo not drawn) [Compound 256, 5-[2-(4-imidazolyl)-2-(2,3-xylyl)ethyl]-4-methylpyrimidine]
36 | 10 to 50 nM | Cc1cccc(C(Cc2cccnc2C)c2c[nH]cn2)c1C (stereo not drawn) [Compound 254, 4-[2-(2-methyl-3-pyridyl)-1-(2,3-xylyl)ethyl]imidazole]
37 | < 10 nM | Cc1cccc(C(Cc2ccnc(C(C)(C)O)n2)c2c[nH]cn2)c1C (stereo not drawn) [Compound 353, 2-{4-[2-(4-imidazolyl)-2-(2,3-xylyl)ethyl]-2-pyrimidinyl}-2 propanol]
38 | < 10 nM | c1cc2c(c(C(Cc3ccc4nccn4c3)c3c[nH]cn3)c1)OCC2 (stereo not drawn) [Compound 300]
39 | < 10 nM | COCc1cc(CC(c2c[nH]cn2)c2cccc(C)c2C)ccn1 (stereo not drawn) [Compound 295, 4-{2-[2-(methoxymethyl)-4-pyridyl]-1-(2,3-xylyl)ethyl}imidazole]
40 | 10 to 50 nM | Cc1cccc(C(Cc2cncc(F)c2)c2c[nH]cn2)c1F (stereo not drawn) [Compound 322, 4-[2-(5-fluoro-3-pyridyl)-1-(2-fluoro-3-tolyl)ethyl]imidazole]
41 | 50 to 500 nM | Cc1nsc(CC(c2c[nH]cn2)c2cccc(C)c2C)n1 (stereo not drawn) [Compound 264, 5-[2-(4-imidazolyl)-2-(2,3-xylyl)ethyl]-3-methyl-1,2,4-thiadiazole]

same assay, conditions: read-out: Beta-Arrestin - Human Alpha2B EC50

Row | SMILES | EC50
42 | Cc1cccc([C@H](Cc2ccncc2)c2c[nH]cn2)c1C [Compound 319, 4-[(S)-2-(4-pyridyl)-1-(2,3-xylyl)ethyl]imidazole] | < 10 nM
